The source made the active and inactive calls. The calls are words filed in the database; no cut-off is given here.
Legend:
[1] = tested on: HCT-116; assay: Induction of cell cycle arrest in human HCT-116 cells assessed as increase in p21 expression by Western blot analysis; type: functional, cell-based
[2] = tested on: HT-29; assay: Induction of cell cycle arrest in human HT-29 cells assessed as accumulation at sub-G1 phase at IC50 incubated for 48 hrs by RNaeA/propidium iodide based flow cytometry analysis (reference value: 0.12 %); type: functional
[3] = tested on: PC-3; assay: Induction of cell cycle arrest in human PC3 cells assessed as accumulation at G2 phase at IC50 incubated for 48 hrs by RNaeA/propidium iodide based flow cytometry analysis (reference value: 23.73 %); type: functional
[4] = tested on: HCT-116; assay: Induction of cell cycle arrest in human HCT-116 cells assessed as increase in Cyclin E2 expression by Western blot analysis; type: functional, cell-based
[5] = tested on: DU-145; assay: Induction of apoptosis in human DU-145 cells assessed as decrease in pro-caspase-3 expression by Western blot assay; type: functional, cell-based
[6] = tested on: PC-3; assay: Induction of apoptosis in human PC-3 cells assessed as viable cells incubated for 48 hrs by annexin-V/FITC and propidium iodide staining based flow cytometry analysis (reference value: 92.95 %); type: functional
[7] = tested on: DU-145; assay: Induction of apoptosis in human DU-145 cells assessed as late apoptotic cells incubated for 48 hrs by annexin-V/FITC and propidium iodide staining based flow cytometry analysis (reference value: 2.56 %); type: functional
[8] = tested on: HCT-116; assay: Induction of cell cycle arrest in human HCT-116 cells assessed as reduction in CDK6 expression by Western blot analysis; type: functional, cell-based
[9] = tested on: PC-3; assay: Induction of apoptosis in human PC-3 cells assessed as increase in DNA fragmentation after 48 hrs by ELISA relative to control; type: functional
[10] = tested on: HCT-116; assay: Induction of cell cycle arrest in human HCT-116 cells assessed as accumulation at sub-G1 phase at IC50 incubated for 48 hrs by RNaeA/propidium iodide based flow cytometry analysis (reference value: 0.67 %); type: functional
[11] = tested on: DU-145; assay: Induction of cell cycle arrest in human DU-145 cells assessed as effect on Cdc2 expression by Western blot analysis; type: functional, cell-based
[12] = tested on: PC-3; assay: Induction of apoptosis in human PC-3 cells assessed as early apoptotic cells incubated for 48 hrs by annexin-V/FITC and propidium iodide staining based flow cytometry analysis (reference value: 4.38 %); type: functional
[13] = tested on: HCT-116; assay: Induction of cell cycle arrest in human HCT-116 cells assessed as accumulation at S phase at IC50 incubated for 48 hrs by RNaeA/propidium iodide based flow cytometry analysis (reference value: 30.68 %); type: functional
[14] = tested on: DU-145; assay: Induction of cell cycle arrest in human DU-145 cells assessed as accumulation at G1 phase at IC50 incubated for 48 hrs by […]/propidium iodide based flow cytometry analysis (reference value: 45.5 %); type: functional
[15] = tested on: PC-3; assay: Induction of cell cycle arrest in human PC-3 cells assessed as increase in p21 expression by Western blot analysis; type: functional, cell-based
[16] = tested on: HT-29; assay: Induction of apoptosis in human HT-29 cells assessed as increase in caspase-3 level by Western blot assay; type: functional, cell-based
[17] = tested on: DU-145; assay: Induction of apoptosis in human DU-145 cells assessed as viable cells incubated for 48 hrs by annexin-V/FITC and propidium iodide staining based flow cytometry analysis (reference value: 94.13 %); type: functional
[18] = tested on: DU-145; assay: Induction of apoptosis in human DU-145 cells assessed as increase in DNA fragmentation after 48 hrs by ELISA relative to control; type: functional
[19] = tested on: DU-145; assay: Induction of apoptosis in human DU-145 cells assessed as increase in caspase-3 level by Western blot assay; type: functional, cell-based
[20] = tested on: HCT-116; assay: Induction of cell cycle arrest in human HCT-116 cells assessed as reduction in CDK2 expression by Western blot analysis; type: functional, cell-based
[21] = tested on: DU-145; assay: Induction of cell cycle arrest in human DU-145 cells assessed as accumulation at S phase at IC50 incubated for 48 hrs by RNaeA/propidium iodide based flow cytometry analysis (reference value: 38.44 %); type: functional
[22] = tested on: DU-145; assay: Induction of apoptosis in human DU-145 cells assessed as early apoptotic cells incubated for 48 hrs by annexin-V/FITC and propidium iodide staining based flow cytometry analysis (reference value: 3.27 %); type: functional
[23] = tested on: DU-145; assay: Induction of cell cycle arrest in human DU-145 cells assessed as accumulation at G2 phase at IC50 incubated for 48 hrs by […]/propidium iodide based flow cytometry analysis (reference value: 16.06 %); type: functional
[24] = tested on: HT-29; assay: Antiproliferative activity against human HT29 cells assessed as reduction in cell viability incubated for 48 hr by MTT assay; type: functional, cell-based; conditions: HT-29, 48 h
[25] = tested on: HT-29; assay: Induction of cell cycle arrest at G1 phase in human HT-29 cells assessed as reduction in CDK6 expression by Western blot analysis; type: functional, cell-based
[26] = tested on: HCT-116; assay: Induction of apoptosis in human HCT-116 cells assessed as increase in cleaved PARP protein expression by Western blot assay; type: functional, cell-based
[27] = tested on: PC-3; assay: Induction of apoptosis in human PC-3 cells assessed as increase in caspase-3 level by Western blot assay; type: functional, cell-based
[28] = tested on: HT-29; assay: Induction of apoptosis in human HT-29 cells assessed as decrease in pro-caspase-3 expression by Western blot assay; type: functional, cell-based
[29] = tested on: HCT-116; assay: Induction of apoptosis in human HCT-116 cells assessed as decrease in PARP protein expression by Western blot assay; type: functional, cell-based
[30] = tested on: PC-3; assay: Induction of cell cycle arrest in human PC-3 cells assessed as decrease in cyclin B1 expression by Western blot analysis; type: functional, cell-based
[31] = tested on: DU-145; assay: Induction of cell cycle arrest in human DU-145 cells assessed as increase in p21 expression by Western blot analysis; type: functional, cell-based
[32] = tested on: PC-3; assay: Induction of cell cycle arrest in human PC3 cells assessed as accumulation at G1 phase at IC50 incubated for 48 hrs by RNaeA/propidium iodide based flow cytometry analysis (reference value: 42.61 %); type: functional
[33] = tested on: HT-29; assay: Induction of cell cycle arrest at G1 phase in human HT-29 cells assessed as reduction in CDK2 expression by Western blot analysis; type: functional, cell-based
[34] = tested on: PC-3; assay: Induction of apoptosis in human PC-3 cells assessed as late apoptotic cells incubated for 48 hrs by annexin-V/FITC and propidium iodide staining based flow cytometry analysis (reference value: 2.13 %); type: functional
[35] = tested on: HT-29; assay: Induction of cell cycle arrest in human HT-29 cells assessed as increase in p21 expression by Western blot analysis; type: functional, cell-based
[36] = tested on: HT-29; assay: Induction of apoptosis in human HT-29 cells assessed as decrease in PARP protein expression by Western blot assay; type: functional, cell-based
[37] = tested on: HT-29; assay: Induction of cell cycle arrest in human HT-29 cells assessed as accumulation at G1 phase at IC50 incubated for 48 hrs by RNaeA/propidium iodide based flow cytometry analysis (reference value: 54.39 %); type: functional
[38] = tested on: PC-3; assay: Induction of cell cycle arrest in human PC-3 cells assessed as decrease in Cdc2 expression by Western blot analysis; type: functional, cell-based
[39] = tested on: PC-3; assay: Induction of cell cycle arrest in human PC3 cells assessed as accumulation at sub-G1 phase at IC50 incubated for 48 hrs by RNaeA/propidium iodide based flow cytometry analysis (reference value: 0 %); type: functional
[40] = tested on: HCT-116; assay: Induction of apoptosis in human HCT-116 cells assessed as decrease in pro-caspase-3 expression by Western blot assay; type: functional, cell-based
[41] = tested on: DU-145; assay: Induction of cell cycle arrest in human DU-145 cells assessed as effect on cyclin A2 expression by Western blot analysis; type: functional, cell-based

COc1cc(C(=O)/C=C/c2ccc(OCCCNCCCNCCCCN)cc2)cc(OC)c1OC was tested, and the Activity [1] was “Active”, the Activity [2] was 7.07% and the Activity [3] was 58.17%. The Activity [4] was “Active”, the Activity [5] was “Active” and the Activity [6] was 50.47%. The Activity [7] was 8.74%, the Activity [8] was “Active” and the “fold change (FC)” value [9] was 6.53. The Activity [10] was 24.17%, the Activity [11] was “inactive” and the Activity [12] was 34.25%. The Activity [13] was 14.4%, the Activity [14] was 28.11% and the Activity [15] was “Active”. The Activity [16] was “Active”, the Activity [17] was 38.96% and the “fold change (FC)” value [18] was 4.88. The Activity [19] was “Active”, the Activity [20] was “Active” and the Activity [21] was 37.34%. For the same compound, the Activity [22] was 52.25%, the Activity [23] was 34.55% and the IC50 [24] was 10.8 µM. For the same compound, the Activity [25] was “Active”, the Activity [26] was “Active” and the Activity [27] was “Active”. The Activity [28] was “Active”, the Activity [29] was “Active” and the Activity [30] was “Active”. The Activity [31] was “Active”, the Activity [32] was 19.12% and the Activity [33] was “Active”. The Activity [34] was 12.65%, the Activity [35] was “Active” and the Activity [36] was “Active”. The Activity [37] was 60.65%, the Activity [38] was “Active” and the Activity [39] was 26.99%. The Activity [40] was “Active” and the Activity [41] was “inactive”.

— ChEMBL document CHEMBL4825690, “Synthesis and biological evaluation of chalcone-polyamine conjugates as novel vectorized agents in colorectal and prostate cancer chemotherapy” (Eur J Med Chem, 2021)
